{"source": "ChEMBL document CHEMBL3638854", "about": "“Chemical compounds” (2015)", "biological_target": "T1, Ileal sodium/bile acid cotransporter (Homo sapiens, UniProt Q12908)", "T1 sequence (Q12908 whole entry)": "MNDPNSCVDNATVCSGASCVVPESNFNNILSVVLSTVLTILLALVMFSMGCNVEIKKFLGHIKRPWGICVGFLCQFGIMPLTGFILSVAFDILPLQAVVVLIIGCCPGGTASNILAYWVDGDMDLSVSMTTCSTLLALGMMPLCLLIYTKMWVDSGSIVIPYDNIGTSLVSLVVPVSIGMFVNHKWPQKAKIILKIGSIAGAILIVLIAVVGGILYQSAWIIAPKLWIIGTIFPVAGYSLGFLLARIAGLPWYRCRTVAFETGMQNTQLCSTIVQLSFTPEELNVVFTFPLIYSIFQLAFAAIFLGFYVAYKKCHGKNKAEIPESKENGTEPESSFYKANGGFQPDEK", "assay": "Inhibition Assay: On the day of the uptake experiment, 10 mM HEPES was added to Hank's Balanced Salt Solution, and the pH was adjusted to 7.4 with TRIS (HBSSH). The assay buffer was prepared by adding 100 uM [3H]-taurocholate and 10 uM cold taurocholate to room temperature HBSSH. A separate washing buffer was prepared by adding 10 uM cold taurocholate to HBSSH (30 ml per assay plate) and placed on ice. Using 100% DMSO, 8 point, 3-fold dilution curves for each test compound was prepared starting at 200 uM. Similarly, an 8 point dose response curve was prepared of the control compound [(3R,5R)-3-butyl-3-ethyl-7,8-bis(methyloxy)-5-phenyl-2,3,4,5-tetrahydro-1,4-benzothiazepine 1,1-dioxide (Brieaddy, L. E. WO9605188, 1996)] starting at 1.8 mM. Drug plates were created by adding 3 uL of each concentration to a v-bottom 96-well plate then diluted 60-fold with 177 uL of assay buffer. Plates were removed from the incubator and allowed to cool to ambient temperature.", "data": [{"smiles": "CCCC[C@]1(CC)CS(=O)(=O)c2cc(CN[C@@H](CCS(C)(=O)=O)C(=O)O)c(OC)cc2[C@@H](c2ccccc2)N1", "values": [{"measurement": "IC50", "result": 0.013, "unit": "µM"}]}]}
